{"source": "paper PMC9459403", "about": "“New inhibitors of cathepsin V impair tumor cell proliferation and elastin degradation and increase immune cell cytotoxicity” (Computational and Structural Biotechnology Journal, 2022)", "system": "K-562 cells", "test": "Cell viability assay (MTS)", "format": "cell-based, human", "settings": "24 h", "method": "The effect of compound 7 on the viability of NK-92, TALL-104, and K-562 cells was evaluated using the MTS [3-(4,5-dimethylthiazol-2-yl)-5-(3-carboxymetoxyphenyl)-2-(4-sulfophenyl)–2H-tetrazolium] colorimetric assay (CellTiter 96 Aqueous One Solution Cell Proliferation Assay, Promega, Madison, WI, USA). NK-92, TALL-104, and K-562 cells were seeded at 2.5 × 10^4, 1 × 10^5, and 1 × 10^4 cells/well, respectively, into a 96-well microplate and treated with inhibitors (2.5, 5, or 10 µM) or DMSO (0.1 %) for 24 h. After incubation, 10 µL of the reagent MTS was added to the wells, and the absorbance of formazan was measured at 492 nm on a Tecan Infinite M1000 (Mannedorf, Switzerland). Cell viability (%) was expressed as the ratio between absorbance in the presence of the compounds and in the presence of DMSO. All assays were performed in quadruplicate and repeated at least twice.", "data": [{"smiles": "O=C(NCc1cccc2ccccc12)NCC1CCN(C(=O)Oc2ccccc2)CC1", "note": "[Compound 7, Phenyl 4-((3-(naphthalen-1-ylmethyl)ureido)methyl)piperidine-1-carboxylate]", "values": [{"measurement": "viability of K-562 cells", "setting": "10 μM", "result": "slightly decreased"}, {"measurement": "viability of K-562 cells", "setting": "up to 5 μM", "result": "not decreased"}]}]}
